Source: patent US20240043401A1, “SALT FORM OF TETRA-SUBSTITUTED OLEFIN COMPOUND, CRYSTAL, AND PREPARATION METHOD THEREFOR” (CHIA TAI TIANQING PHARMACEUTICAL GROUP CO., LTD., priority 2020, published 2024)
In brackets after ≈: the same amount, converted by molar mass. Each block holds one molecule with its values, some of them ahead of it.

How the values were obtained:
[1] = Solubility of crystalline forms (supersaturated suspension shaken at 37° C. for 24 h, HPLC-UV); assay type: physicochemical; conditions: thermodynamic from solid, 800 rpm
Procedure: 1-2 mg of a test sample was taken and placed in a semi-automatic filter vial, and 450 μL of purified water or FeSSIF simulated fluid (fed state simulated intestinal fluid) was added to give a supersaturated suspension. The sample was vortexed for at least 2 min. The vial was placed on a plate shaker and shaken at 37° C. at 800 rpm for 24 h. After centrifugal filtration, the sample was subjected to HPLC-UV linear quantitative analysis for concentration.
FeSSIF (fed state simulated intestinal fluid): an aqueous buffer solution comprising 0.282% (w/v) lecithin, 0.806% (w/v) sodium taurocholate, 0.865% (w/v) acetic acid, 1.52% (w/v) potassium chloride, with a pH of […]

[2] = In vivo pharmacokinetic study after a single oral dose; conditions: dog; female beagle dogs, single oral dose 100 mg/kg at 1 h after feeding, plasma, mean
Procedure: This experiment was intended to evaluate the pharmacokinetic behavior of the compound after a single intragastric administration and to investigate bioavailability after intragastric administration. Two female beagle dogs were each given a single oral dose of the crystalline form I of the compound of formula (II) at 100 mg/kg at 1 h after feeding, and plasma samples were taken at 0.0833 (5 min), 0.25 (15 min), 0.5 (30 min), 1, 2, 4, 6, 8, 12, and 24 h after administration and assayed for the concentration of the test substance by LC-MS/MS.

[3] = Forced degradation experiment; assay type: physicochemical
Procedure: Control group: 20 mg of a sample was weighed out, a proper amount of diluent (acetonitrile:water=1:1, v/v) was added to dissolve the sample, and then the solution was brought to a volume of 100 mL with the diluent (acetonitrile:water=1:1, v/v). A proper amount of the solution was taken for analysis. Acidic degradation: 20 mg of the sample was weighed out, and 1 mL of a 1 M aqueous HCl solution was added. After sitting at room temperature for 24 h, the mixture was neutralized with 1 mL of a 1 M aqueous NaOH solution. The solution was brought to a volume of 100 mL with the diluent (acetonitrile:water=1:1, v/v). A proper amount of the solution was taken for analysis. Basic degradation: 20 mg of the sample was weighed out, and 1 mL of a 1 M aqueous NaOH solution was added. After sitting at room temperature for 24 h, the mixture was neutralized with 1 mL of a 1 M aqueous HCl solution. The solution was brought to a volume of 100 mL with the diluent (acetonitrile:water=1:1, v/v). A proper amount of the solution was taken for analysis. Oxidative degradation: 20 mg of the sample was weighed out, 1 mL of a 3% aqueous hydrogen peroxide solution was added, and the mixture was left at room temperature for 24 h. The solution was brought to a volume of 100 mL with the diluent (acetonitrile:water=1:1, v/v). A proper amount of the solution was taken for analysis.

[4] = Dynamic vapor sorption (DVS) hygroscopicity; assay type: physicochemical; conditions: from the DVS patterns, 25° C.
Procedure: 1.4. Dynamic Vapor Sorption (DVS) Method of the Present Application
Instrument model: DVS Intrinsic instrument from SMS (Surface Measurement Systems) Inc.
Temperature: 25° C.; sample amount: 10-30 mg; protective gas and flow: N2, 200 mL/min; dm/dt: 0.002%/min; minimum dm/dt equilibration time: 10 min; maximum equilibration time: 180 min; RH range: 0% RH-95% RH-0% RH; RH gradient: 10% (90% RH-0% RH-90% RH), 5% (95% RH-90% RH and 90% RH-95% RH).

[5] = oral administration; cited from earlier work
breast cancer patients = conditions: intramuscular injection; cited from earlier work
[6] = Vehicle: FeSSIF (fed state simulated intestinal fluid)

SMILES: Br.CC/C(=C(/c1ccc(OCCNC/C=C/C(=O)N(C)C)nc1)c1[nH]c2ccccc2c1Cl)c1ccccc1
solubility at 24 h [1, 6]: 1.37 mg/mL

SMILES: CC/C(=C(/c1ccc(OCCNC/C=C/C(=O)N(C)C)nc1)c1[nH]c2ccccc2c1Cl)c1ccccc1.Cl [listing 1 of 2 here]
solubility at 24 h ([1]; purified water, Vehicle: Water): 0.237 mg/mL
solubility at 24 h [1, 6]: 1.9 mg/mL
AUC(0-t) [2]: 229 µM·h
Cmax [2]: 14 µM
Tmax [2]: 6 h
half-life [2]: 14.9 h
Total impurities ([3]; Acidic degradation: 1 M aqueous HCl, room temperature, 24 h, listed as crystalline form I of the compound of formula (II)): 0.34%
Total impurities ([3]; Basic degradation: 1 M aqueous NaOH, room temperature, 24 h, listed as crystalline form I of the compound of formula (II)): 0.35%
Total impurities ([3]; Not degraded (control group, dissolved in acetonitrile:water 1:1), listed as crystalline form I of the compound of formula (II)): 0.34%
Total impurities ([3]; Oxidative degradation: 3% aqueous hydrogen peroxide, room temperature, 24 h, listed as crystalline form I of the compound of formula (II)): 0.92%
Hygroscopicity [4]: lower hygroscopicity than the amorphous form

SMILES: C[C@]12CC[C@@H]3c4ccc(O)cc4C[C@@H](CCCCCCCCC[S+]([O-])CCCC(F)(F)C(F)(F)F)[C@H]3[C@@H]1CC[C@@H]2O (stereo partly drawn) [fulvestrant]
Bioavailability [5]: zero
Clinical response rate (breast cancer patients): about 50%

The next lines start with the values.

Total impurities ([3]; Acidic degradation: 1 M aqueous HCl, room temperature, 24 h): 0.56%
Total impurities ([3]; Basic degradation: 1 M aqueous NaOH, room temperature, 24 h): 0.54%
Total impurities ([3]; Not degraded (control group, dissolved in acetonitrile:water 1:1)): 0.60%
Total impurities ([3]; Oxidative degradation: 3% aqueous hydrogen peroxide, room temperature, 24 h): 3.5%
SMILES: CC/C(=C(/c1ccc(OCCNC/C=C/C(=O)N(C)C)nc1)c1[nH]c2ccccc2c1Cl)c1ccccc1.Cl [listing 2 of 2 here]

solubility at 24 h [1, 6]: 1.95 mg/mL
SMILES: CC/C(=C(/c1ccc(OCCNC/C=C/C(=O)N(C)C)nc1)c1[nH]c2ccccc2c1Cl)c1ccccc1.O=C(O)/C=C/C(=O)O

solubility at 24 h ([1]; purified water, Vehicle: Water): < 0.0008 mg/mL
solubility at 24 h [1, 6]: 0.316 mg/mL (≈ 597 µM)
SMILES: CC/C(=C(/c1ccc(OCCNC/C=C/C(=O)N(C)C)nc1)c1[nH]c2ccccc2c1Cl)c1ccccc1
